± gives the standard deviation of the averaged measurements.
What was measured:
Assay in all cases: relative viability vs DMSO control (72 h) (fraction); higher = more viable cells
A204 = system: A204
How it was run: (§1)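 Sarcoma cell lines were seeded in 384-well plates at densities set to reach 80–90% confluence. After 24 h, 2.5 µl of serially diluted compound was added (source plates 10 mM to 0.0002 mM), and plates were held 72 h at 37 °C, 5% CO2, with 0.1% DMSO vehicle and a 5 µM positive control. Relative viability came from ATPLite readings as percent growth, averaged over up to triplicate wells. Data were rescaled so full viability equals 1 and none equals 0.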

G401 = system: G401
How it was run: as §1

HS729 = system: HS729
How it was run: as §1

KHOS-240S = system: KHOS-240S
How it was run: as §1

MES-SA = system: MES-SA
How it was run: as §1

SK-ES-1 = system: SK-ES-1
How it was run: as §1

SK-LMS-1 = system: SK-LMS-1
How it was run: as §1

SW1353 = system: SW1353
How it was run: as §1

SW684 = system: SW684
How it was run: as §1

SW872 = system: SW872
How it was run: as §1

SW982 = system: SW982
How it was run: as §1

SYO-1 = system: SYO-1
How it was run: as §1

CCc1nc(C(N)=O)c(Nc2ccc(N3CCC(N4CCN(C)CC4)CC3)c(OC)c2)nc1NC1CCOCC1 [Gilteritinib]
Conditions | relative viability
A204, 60 pM | 1.05 ± 0.034
A204, 0.00018 µM | 1.01 ± 0.022
A204, 0.00053 µM | 1.04 ± 0.059
A204, 0.0016 µM | 1.04 ± 0.059
A204, 0.0048 µM | 1.02 ± 0.024
A204, 0.014 µM | 1.02 ± 0.032
A204, 0.043 µM | 1.03 ± 0.041
A204, 0.13 µM | 0.943 ± 0.032
A204, 0.389 µM | 0.742 ± 0.05
A204, 1.167 µM | 0.502 ± 0.035
A204, 3.5 µM | 0.385 ± 0.025
G401, 60 pM | 1.03 ± 0.021
G401, 0.00018 µM | 0.985 ± 0.042
G401, 0.00053 µM | 0.968 ± 0.027
G401, 0.0016 µM | 0.998 ± 0.022
G401, 0.0048 µM | 0.981 ± 0.02
G401, 0.014 µM | 0.979 ± 0.031
G401, 0.043 µM | 0.971 ± 0.033
G401, 0.13 µM | 0.851 ± 0.086
G401, 0.389 µM | 0.661 ± 0.056
G401, 1.167 µM | 0.478 ± 0.0066
G401, 3.5 µM | 0.457 ± 0.0047
HS729, 60 pM | 0.9885 ± 0.0079
HS729, 0.00018 µM | 0.928 ± 0.03
HS729, 0.00053 µM | 0.924 ± 0.076
HS729, 0.0016 µM | 0.875 ± 0.049
HS729, 0.0048 µM | 0.828 ± 0.018
HS729, 0.014 µM | 0.797 ± 0.025
HS729, 0.043 µM | 0.74 ± 0.02
HS729, 0.13 µM | 0.63 ± 0.011
HS729, 0.389 µM | 0.47 ± 0.036
HS729, 1.167 µM | 0.357 ± 0.0099
HS729, 3.5 µM | 0.322 ± 0.025
KHOS-240S, 60 pM | 1.08 ± 0.027
KHOS-240S, 0.00018 µM | 1.06 ± 0.026
KHOS-240S, 0.00053 µM | 1.08 ± 0.042
KHOS-240S, 0.0016 µM | 1.04 ± 0.017
KHOS-240S, 0.0048 µM | 1.08 ± 0.06
KHOS-240S, 0.014 µM | 1.02 ± 0.045
KHOS-240S, 0.043 µM | 0.985 ± 0.065
KHOS-240S, 0.13 µM | 0.913 ± 0.028
KHOS-240S, 0.389 µM | 0.848 ± 0.057
KHOS-240S, 1.167 µM | 0.509 ± 0.0098
KHOS-240S, 3.5 µM | 0.398 ± 0.014
MES-SA, 60 pM | 0.954 ± 0.05
MES-SA, 0.00018 µM | 0.936 ± 0.025
MES-SA, 0.00053 µM | 0.921 ± 0.0097
MES-SA, 0.0016 µM | 0.922 ± 0.018
MES-SA, 0.0048 µM | 0.904 ± 0.02
MES-SA, 0.014 µM | 0.947 ± 0.041
MES-SA, 0.043 µM | 0.904 ± 0.019
MES-SA, 0.13 µM | 0.89 ± 0.021
MES-SA, 0.389 µM | 0.76 ± 0.022
MES-SA, 1.167 µM | 0.51 ± 0.022
MES-SA, 3.5 µM | 0.393 ± 0.033
SK-ES-1, 60 pM | 0.996 ± 0.028
SK-ES-1, 0.00018 µM | 1.03 ± 0.061
SK-ES-1, 0.00053 µM | 1.07 ± 0.025
SK-ES-1, 0.0016 µM | 1.01 ± 0.035
SK-ES-1, 0.0048 µM | 0.979 ± 0.0026
SK-ES-1, 0.014 µM | 0.964 ± 0.046
SK-ES-1, 0.043 µM | 0.932 ± 0.017
SK-ES-1, 0.13 µM | 0.697 ± 0.026
SK-ES-1, 0.389 µM | 0.208 ± 0.0091
SK-ES-1, 1.167 µM | 0.112 ± 0.0077
SK-ES-1, 3.5 µM | 0.119 ± 0.0046
SK-LMS-1, 60 pM | 1.03 ± 0.034
SK-LMS-1, 0.00018 µM | 1.01 ± 0.025
SK-LMS-1, 0.00053 µM | 1.01 ± 0.017
SK-LMS-1, 0.0016 µM | 1.03 ± 0.013
SK-LMS-1, 0.0048 µM | 0.985 ± 0.033
SK-LMS-1, 0.014 µM | 1.018 ± 0.0084
SK-LMS-1, 0.043 µM | 0.977 ± 0.022
SK-LMS-1, 0.13 µM | 0.929 ± 0.019
SK-LMS-1, 0.389 µM | 0.765 ± 0.035
SK-LMS-1, 1.167 µM | 0.504 ± 0.066
SK-LMS-1, 3.5 µM | 0.398 ± 0.014
SW684, 60 pM | 1.08 ± 0.034
SW684, 0.00018 µM | 1.13 ± 0.062
SW684, 0.00053 µM | 1.11 ± 0.076
SW684, 0.0016 µM | 1.14 ± 0.032
SW684, 0.0048 µM | 1.15 ± 0.062
SW684, 0.014 µM | 1.13 ± 0.056
SW684, 0.043 µM | 1.09 ± 0.031
SW684, 0.13 µM | 0.889 ± 0.061
SW684, 0.389 µM | 0.633 ± 0.043
SW684, 1.167 µM | 0.506 ± 0.019
SW684, 3.5 µM | 0.491 ± 0.011
SW872, 60 pM | 1.03 ± 0.038
SW872, 0.00018 µM | 1.01 ± 0.072
SW872, 0.00053 µM | 1.01 ± 0.02
SW872, 0.0016 µM | 1.01 ± 0.029
SW872, 0.0048 µM | 0.98 ± 0.024
SW872, 0.014 µM | 0.949 ± 0.089
SW872, 0.043 µM | 0.905 ± 0.064
SW872, 0.13 µM | 0.787 ± 0.046
SW872, 0.389 µM | 0.493 ± 0.0078
SW872, 1.167 µM | 0.341 ± 0.029
SW872, 3.5 µM | 0.305 ± 0.021
SW982, 60 pM | 0.9618 ± 0.0074
SW982, 0.00018 µM | 0.996 ± 0.032
SW982, 0.00053 µM | 0.978 ± 0.02
SW982, 0.0016 µM | 0.967 ± 0.03
SW982, 0.0048 µM | 0.988 ± 0.047
SW982, 0.014 µM | 0.947 ± 0.041
SW982, 0.043 µM | 0.945 ± 0.038
SW982, 0.13 µM | 0.612 ± 0.029
SW982, 0.389 µM | 0.277 ± 0.021
SW982, 1.167 µM | 0.195 ± 0.005
SW982, 3.5 µM | 0.2 ± 0.018
SW1353, 60 pM | 1.04 ± 0.041
SW1353, 0.00018 µM | 1.04 ± 0.035
SW1353, 0.00053 µM | 1 ± 0.019
SW1353, 0.0016 µM | 1 ± 0.079
SW1353, 0.0048 µM | 0.932 ± 0.038
SW1353, 0.014 µM | 0.955 ± 0.07
SW1353, 0.043 µM | 0.972 ± 0.059
SW1353, 0.13 µM | 0.896 ± 0.013
SW1353, 0.389 µM | 0.779 ± 0.026
SW1353, 1.167 µM | 0.65 ± 0.0091
SW1353, 3.5 µM | 0.617 ± 0.053
SYO-1, 60 pM | 0.959 ± 0.018
SYO-1, 0.00018 µM | 0.921 ± 0.038
SYO-1, 0.00053 µM | 0.915 ± 0.02
SYO-1, 0.0016 µM | 0.848 ± 0.053
SYO-1, 0.0048 µM | 0.815 ± 0.042
SYO-1, 0.014 µM | 0.791 ± 0.064
SYO-1, 0.043 µM | 0.734 ± 0.04
SYO-1, 0.13 µM | 0.637 ± 0.08
SYO-1, 0.389 µM | 0.481 ± 0.029
SYO-1, 1.167 µM | 0.389 ± 0.044
SYO-1, 3.5 µM | 0.369 ± 0.039

— the supplement of paper PMC10883282
